Usually IC50 stands for the concentration that inhibits the measured activity by half. What is called inhibition is the share of the control response that was lost under treatment. Low readings indicate a weak effect, high ones a strong effect. In general, melting point refers to the temperature, or range, at which the solid turns liquid.

≈ marks a conversion by molar mass, not a printed value. Read-outs that look alike come from different tables or passages of the source.

The values that follow come from paper PMC8985176, “Structural transformation of methasterone with Cunninghamella blakesleeana and Macrophomina phaseolina” (RSC Advances, 2022).

In data set [1] the test system is nitric oxide (NO) production. Description: Nitric oxide (NO) production inhibitory assay (Griess method, LPS-stimulated J774.2 macrophages). Type of data set: cell-based, mouse. How it is done: The J774.2 cell line (mouse macrophage) was obtained from (European Collection of Cell Cultures, Salisbury, UK). It was cultivated in […] flasks (IWAKI, Asahi Techno Glass, Shizuoka, Japan), containing DMEM (Sigma-Aldrich, Steinheim, Germany) and fetal bovine serum (FBS) (10%) (GIBCO, New York, NY, USA) and 1% streptomycin/penicillin, and were incubated in 5% CO2 at 37 °C. Fully-grown cells (10^6 cells per mL) were transferred into the 96-well plate, and NO synthase was added into the wells by E. coli (30 μg mL^−1) lipopolysaccharide (LPS) (DIFCO Laboratories, Detroit, MI, USA) for NO production. Samples were tested with different concentrations (1, 10, and 25 μg mL^−1), and placed in CO2 (5%) at 37 °C. N^G monomethyl L-arginine acetate (LNMMA) was used as a standard NO inhibitor. Griess method was used to analyze the accumulation of nitrite in the cells.[35] IC50 values were calculated by a Microsoft Excel-based formula.
Background: Griess reagent forms a coloured azo dye with nitrite.

A short description of data set [2]: Cytotoxicity MTT assay, BJ cells. Type of data set: cell-based. The conditions noted are these: human, BJ normal human fibroblast cells, μM converted to μg mL^−1, read-out: IC50 cytotoxicity against human normal cell line (BJ). How it is done: (§1) MCF-7 (breast cancer), NCI-H460 (lung cancer), HeLa (cervical cancer) cell lines, and BJ (normal human fibroblast) cell lines were collected from cell culture biobank (PCMD, ICCBS). DMEM medium was used for MCF-7, HeLa, and BJ, and RPMI (ATCC modified medium) was used for NCI-H460. The media was supplemented with 10% FBS, 100 IU mL^−1 of penicillin, and 100 μg mL^−1 of streptomycin, and kept at 37 °C in a 5% CO2 incubator. The inhibition was investigated by MTT assay. Briefly, 100 μL per well of cell solutions (10 × 10^4 cells per mL MCF-7 cells, 5 × 10^4 cells per mL NCI-H460 cells, 6 × 10^4 cells per mL HeLa cells, or 5 × 10^4 cells per mL BJ cells), were added into 96-well plate and incubated for 24 h at 37 °C, before treatment with 6.25–50 μM of compounds or positive control doxorubicin for 48 h. After this, 20 μL of MTT (5 mg mL^−1) was added to each well and then incubated for 4 h at 37 °C. Then 100 μL DMSO was added to each well to dissolve the purple formazan crystal. The absorbance was analyzed at 570 nm (MCF-7, NCI-H460, and HeLa) or 550 nm (BJ) using an ELISA plate reader.

Data set [3] relates to MCF-7 (breast cancer) cell line. Description: Cytotoxicity MTT assay, MCF-7 cells. Type of data set: cell-based. The conditions noted are these: Homo sapiens, MCF7, 48 h. Here is the method: as §1
(In general: Formazan colour is commonly taken as a measure of viable cells.)

The subject of data set [4] is NCI-H460 (lung cancer) cell line. Description: Cytotoxicity MTT assay, NCI-H460 cells. It counts as cell-based. The conditions noted are these: Homo sapiens, 48 h. How it is done: as §1
Data set [5] relates to HeLa (cervical cancer) cell line. Description: Cytotoxicity MTT assay, HeLa cells. The conditions noted are these: Homo sapiens, 48 h. It counts as cell-based. How it is done:
as §1

Setting [6] is: J774.2 mouse macrophages, LPS 30 μg mL^−1, Griess method, read-out: IC50 against nitric oxide (NO) production.

Consider `CC1CC2(C)C(CCC3C2CCC2(C)C3CCC2(C)O)CC1=O` (centres unmarked) [Compound 1, methasterone], for which, in data set [1] (setting [6]), the IC50 is 23.9 ± 0.2 µg/mL (≈ 75 µM). The IC50 at 48 h in data set [2] amounted to 8.01 ± 0.52 µg/mL (≈ 25.1 µM). Further, the inhibition at 50 µM in data set [3], in data set [4] and in data set [5] was less than 50% in each case.
As for `C[C@@H]1C[C@@]2(C)[C@H](CC1=O)[C@H](O)[C@H](O)[C@@H]1[C@@H]2CC[C@@]2(C)[C@H]1CC[C@]2(C)O` [Compound 2, 6β,7β,17β-Trihydroxy-2α,17α-dimethyl-5α-androstane-3-one], the melting point lay in the range of 139 to 141 °C. For the same compound, in data set [1] (setting [6]), the IC50 was found to be 38.1 ± 0.5 µg/mL (≈ 109 µM). Moreover, the inhibition at 50 µM in data set [3] is less than 50%. In addition, the inhibition at 50 µM in data set [4] was less than 50%. The same compound displayed an inhibition at 50 µM in data set [5] of less than 50%.
`CC1CC2(C)C(CC1=O)C(O)CC1C3CCC(C)(O)C3(C)CCC12O` (stereo not drawn) [Compound 7, 6β,9α,17β-Trihydroxy-2α,17α-dimethyl-5α-androstane-3-one]: the melting point fell in the range of 139 to 141 °C. Also, the IC50 in data set [1] (Mus musculus, J774.2, read-out: IC50 against nitric oxide (NO) production) is 40.2 ± 3.3 µg/mL (≈ 115 µM). The compound also yielded an inhibition at 50 µM in data set [3] of less than 50%. In data set [4], the inhibition at 50 µM is less than 50%. In data set [5], this compound registered an inhibition at 50 µM of less than 50%.
As to `CC(=O)O.CNC(=N)NCCC[C@H](N)C(=O)O` [LNMMA, N^G monomethyl L-arginine acetate, reference compound], the “IC50 against nitric oxide (NO) production” value in data set [1] (J774.2 mouse macrophages, LPS 30 μg mL^−1, Griess method) was 24.2 ± 0.8 µg/mL.
As to `COc1cccc2c1C(=O)c1c(O)c3c(c(O)c1C2=O)C[C@@](O)(C(=O)CO)C[C@@H]3O[C@H]1C[C@H](N)[C@H](O)[C@H](C)O1` [doxorubicin, reference compound], the IC50 in data set [4] (read-out: IC50 against NCI-H460) amounted to 0.76 ± 0.05 µg/mL (≈ 1.4 µM).
